Data set [1] is described as follows: Solubility of the compound. Format: physicochemical.
Data set [2] is described as follows: Plasma concentration in Sprague-Dawley rat at 5 mg/kg, po after 4 hrs by LC-MS/MS analysis. Format: ADME, organism-based. Set-up: dose 5 mg/kg, route oral.
Data set [3] is described as follows: Plasma concentration in Sprague-Dawley rat at 30 mg/kg, po after 4 hrs by LC-MS/MS analysis. The format is ADME, organism-based. Set-up: dose 30 mg/kg, route oral.
Data set [4] in a line: Plasma concentration in Sprague-Dawley rat at 5 mg/kg, po after 6 hrs by LC-MS/MS analysis. The format is ADME, organism-based. More on the design: dose 5 mg/kg, route oral.
The nature of data set [5]: Plasma concentration in Sprague-Dawley rat at 5 mg/kg, po after 1 hr by LC-MS/MS analysis. Set-up: dose 5 mg/kg, route oral. The format is ADME, organism-based.
A short description of data set [6]: Plasma concentration in Sprague-Dawley rat at 5 mg/kg, po after 2 hrs by LC-MS/MS analysis. Format: ADME, organism-based. Set-up: dose 5 mg/kg, route oral.

Solubility and concentration data for four compounds are collected here from ChEMBL document CHEMBL1153202, “Optimization of piperidyl-ureas as inhibitors of soluble epoxide hydrolase” (Bioorg Med Chem Lett, 2010).

Structures are written as SMILES. In brackets after ≈: the same amount, converted by molar mass.

Broadly, the solubility is the concentration that dissolves in the medium under given conditions. A low value points to a poorly soluble substance.

For the compound `O=C(NCc1ccc(Cl)cc1Cl)N1CCC(Oc2ccccc2)CC1`, the concentration in solution in data set [1] (solubility) was 3.4 µg/mL (≈ 8.96 µM). The same compound yielded a concentration at 4 h in data set [2] of 100 nM.

With `O=C(NCc1ccc(Cl)cc1Cl)N1CCC(Oc2ncccn2)CC1`, the solubility in data set [1] came to 174 µg/mL (≈ 456 µM). Further, the concentration at 4 h in data set [2] stood at 1300 nM.

`O=C(Nc1ccc(OC(F)(F)F)cc1)N1CCC(n2cccc2)CC1` showed a concentration at 4 h in data set [3] of 2800 nM.

In turn, `O=C(O)c1ccc(OC2CCN(C(=O)NCc3ccc(Cl)cc3Cl)CC2)cc1` registered a concentration at 4 h in data set [2] of 3800 nM. Moreover, the concentration at 6 h in data set [4] amounted to 5430 nM. Also, the concentration at 1 h in data set [5] stood at 1700 nM. The compound further registered a concentration at 2 h in data set [6] of 2660 nM.
